Where a SMILES comes first, the peptide text is derived from it.
Legend:
[1] = system: chymotrypsin-type proteases; conditions: previously synthesized molecules; cited from earlier work
[2] = system: Plu4509; experiment: In vitro enzyme assay of purified Plu4509 with leupeptin as substrate; assay type: biochemical, P. luminescens; conditions: His6x-tagged Plu4509; end point analysis; 1 h, 35° C.
[3] = system: trypsin-like proteases; conditions: cited from earlier work
[4] = cited from earlier work
[5] = Spontaneous conversion of pro-pyrazinones under aerobic conditions; assay type: physicochemical
[6] = system: calpain protease; conditions: cited from earlier work

SMILES	inhibition of chymotrypsin-type proteases [1]	stability under aerobic conditions (conversion to pyrazinone) [5]	further results
CC(=O)NC(CC(C)C)C(=O)NC(CC(C)C)C(=O)NC(C=O)Cc1ccccc1 (stereo not drawn) [leupeptin C] (Ac-Leu-Leu-Phe-aldehyde; configuration not given here)	confirmed to inhibit chymotrypsin-type proteases		
CC(=O)N[C@@H](CC(C)C)C(=O)N[C@@H](CC(C)C)C(=O)N[C@H](C=O)CCCNC(=N)N [leupeptin A, N-Acetyl-L-leucyl-L-leucyl-L-argininal]			cleavage by Plu4509: production of metabolites 10 and 11 from the substrate [2]: significantly enhanced production of 10 and 11; inhibition of trypsin-like proteases [3]: inhibits trypsin-like proteases; toxicity in humans [4]: very low toxicity
CC(C)C[C@@H]1N[C@@H]2N=C(N)N3CCC[C@@]23NC1=O [compound 9]		spontaneously converted to their pyrazinone counterpart 11	
CC(C)C[C@@H]1N[C@@H]2N=C(N)N3CCC[C@]23NC1=O [compound 10]		spontaneously converted to their pyrazinone counterpart 11	
CC(=O)N[C@@H](CC(C)C)C(=O)N[C@@H](CC(C)C)C(=O)N[C@H](C=O)Cc1ccc(O)cc1 [leupeptin B] (Ac-Leu-Leu-Tyr-aldehyde)	confirmed to inhibit chymotrypsin-type proteases		
CC(C)Cc1ncc(Cc2ccc(O)cc2)[nH]c1=O [lumizinone A]			calpain protease inhibition [6]: calpain protease inhibitor

Reference: patent US11912742B2, “Heterologous production of leupeptin protease inhibitors and analogs thereof” (YALE UNIVERSITY, priority 2020, dated 2024)
